According to patent US11660293B2, “Substituted 2-azabicyclo[3.1.1]heptane and 2-azabicyclo[3.2.1]octane derivatives as orexin receptor antagonists” (Chronos Therapeutics Limited, priority 2017, dated 2023):

Assays:
[1] = molecular target: human Orexin type 1 receptors (Homo sapiens (Human), UniProt O43613); assay: Scintillation Proximity Assay (SPA) binding assay, [3H]SB-674042 displacement, CHO-hOX1 membranes; conditions: Table 2, [3H]SB-674042 2 nM
Protocol: Scintillation Proximity Assay (SPA) Binding Assays CHO cells stably transfected with human Orexin type 1 receptors (CHO-hOX1) or HEK-293 cells transiently transfected with human Orexin type 2 receptors (HEK-hOX2) were collected after 16 h induction with 5 mM sodium butyrate. […] The binding was performed in a final volume of 200 μl. 100 μl of hOX1 or hOX2 beads-membranes suspension were added to 100 μl of [^3H]SB-674042 or [^3H]EMPA solutions (radioligand concentration 2 nM final in the assay), into the 96-well Isoplates containing the 2 μl/well of compounds to be tested. Nonspecific binding was measured in the presence of 1 μM Almorexant. Assay plates were then incubated at room temperature for 3 h before being counted in a Microbeta scintillation counter (PerkinElmer). Data were analysed by non-linear regression analysis using XLfit Software.

[2] = molecular target: human Orexin type 2 receptors (Homo sapiens (Human), UniProt O43614); assay: Scintillation Proximity Assay (SPA) binding assay, [3H]EMPA displacement, HEK-hOX2 membranes; conditions: Table 2, [3H]EMPA 2 nM
Protocol: Scintillation Proximity Assay (SPA) Binding Assays
CHO cells stably transfected with human Orexin type 1 receptors (CHO-hOX1) or HEK-293 cells transiently transfected with human Orexin type 2 receptors (HEK-hOX2) were collected after 16 h induction with 5 mM sodium butyrate. The cell pellets were re-suspended, homogenized in 15 mM Tris/HCl pH=7.5, 1 mM EGTA, 0.3 mM EDTA, 2 mM MgCl2, protease inhibitors and centrifuged at 40,000 g (20 min, 4° C.). After re-suspension, homogenization and centrifugation as above, the final pellets were re-suspended in 75 mM Tris/HCl pH=7.5, 1 mM EGTA, 0.3 mM EDTA, 12.5 mM MgCl2, 250 mM Sucrose, protease inhibitors, divided into aliquots and frozen down at −80° C.
CHO-hOX1 cell membranes (6 μg ml^−1) or HEK-hOX2 membranes (8 μg ml^−1) were pre-coupled with 1.0 mg ml^−1 of Wheatgerm Agglutinin-coated Yttrium Silicate (YSi-WGA) SPA beads (Perkin Elmer) in buffer containing 25 mM HEPES pH=7.4, 1 mM CaCl2), 5 mM MgCl2, 0.01% (w/v) BSA, 0.02% (w/v) Pluronic F-127 by shaking at room temperature for 2.5-3 h.
The binding was performed in a final volume of 200 μl. 100 μl of hOX1 or hOX2 beads-membranes suspension were added to 100 μl of [^3H]SB-674042 or [^3H]EMPA solutions (radioligand concentration 2 nM final in the assay), into the 96-well Isoplates containing the 2 μl/well of compounds to be tested. Nonspecific binding was measured in the presence of 1 μM Almorexant. Assay plates were then incubated at room temperature for 3 h before being counted in a Microbeta scintillation counter (PerkinElmer).
Data were analysed by non-linear regression analysis using XLfit Software.

Chain of human Orexin type 1 receptors (O43613 whole entry): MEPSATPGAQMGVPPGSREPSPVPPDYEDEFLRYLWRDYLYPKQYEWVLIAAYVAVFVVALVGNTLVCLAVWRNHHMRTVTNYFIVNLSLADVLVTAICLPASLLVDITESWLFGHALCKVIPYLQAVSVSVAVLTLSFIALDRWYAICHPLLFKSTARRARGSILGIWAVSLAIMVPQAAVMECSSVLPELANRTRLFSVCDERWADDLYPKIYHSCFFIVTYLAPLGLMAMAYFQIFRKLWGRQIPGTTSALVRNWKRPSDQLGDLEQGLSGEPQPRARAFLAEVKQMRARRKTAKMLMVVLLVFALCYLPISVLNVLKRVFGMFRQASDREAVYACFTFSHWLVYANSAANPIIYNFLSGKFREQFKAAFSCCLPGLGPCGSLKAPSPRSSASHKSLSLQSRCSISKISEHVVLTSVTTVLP
Chain of human Orexin type 2 receptors (O43614 whole entry): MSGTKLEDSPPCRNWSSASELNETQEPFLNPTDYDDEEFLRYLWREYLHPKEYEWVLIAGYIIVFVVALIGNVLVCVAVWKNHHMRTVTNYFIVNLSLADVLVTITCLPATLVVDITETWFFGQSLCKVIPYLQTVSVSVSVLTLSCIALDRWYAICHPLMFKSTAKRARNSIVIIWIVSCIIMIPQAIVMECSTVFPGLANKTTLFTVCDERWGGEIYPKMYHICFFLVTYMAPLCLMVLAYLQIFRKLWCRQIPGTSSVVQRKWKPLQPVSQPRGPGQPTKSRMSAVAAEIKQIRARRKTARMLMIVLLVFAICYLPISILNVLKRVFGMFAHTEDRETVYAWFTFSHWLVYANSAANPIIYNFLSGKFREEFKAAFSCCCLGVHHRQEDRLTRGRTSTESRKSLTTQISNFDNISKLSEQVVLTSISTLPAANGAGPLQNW

Compound | OX1 pKi (SPA binding) [1] | OX2 pKi (SPA binding) [2]
Cc1ccc(-c2ccccn2)c(C(=O)N2C3CC(C3)[C@@H](C)C2COc2ccc(F)cn2)n1 (mixture of isomers) [Example 131, cis-2′-(3-{[(-fluoropyridin-2-yl)oxy]methyl}-4-methyl-2-azabicyclo[3.1.1]heptane-2-carbonyl)-6′-methyl-2,3′-bipyridine] | 7.02 | 6.1
Cc1ccc(-c2ncc(C(F)(F)F)cn2)c(C(=O)N2C3CC(C3)[C@@H](C)C2COc2ccc(F)cc2)n1 (mixture of isomers) [Example 133, cis-3-[(4-fluorophenoxy)methyl]-4-methyl-2-{6-methyl-3-[5-(trifluoromethyl)pyrimidin-2-yl]pyridine-2-carbonyl}-2-azabicyclo[3.1.1]heptane] | 7.25 | 6.79
Cc1ccc(-c2ncc(F)cn2)c(C(=O)N2C3CC(C3)[C@@H](C)C2COc2ccc(F)cc2)n1 (mixture of isomers) [Example 134, cis-3-[(4-fluorophenoxy)methyl]-2-[3-(5-fluropyrimidin-2-yl)-6-methylpyridine-2-carbonyl]-4-methyl-2-azabicyclo[3.1.1]heptane] | 7.85 | 7.03
Cc1cnn(-c2ccc(C)nc2C(=O)N2C3CC(C3)[C@@H](C)C2COc2ccc(F)cc2)c1 (mixture of isomers) [Example 135, cis-3-[(4-fluorophenoxy)methyl]-4-methyl-2-[6-methyl-3-(4-methyl-1H-pyrazol-1-yl)pyridine-2-carbonyl]-2-azabicyclo[3.1.1]heptane] | 7.78 | 6.39
Cc1nc(C(=O)N2C3CC(C3)[C@@H](C)C2COc2ccc(F)cc2)c(-c2cnccn2)s1 (mixture of isomers) [Example 136, cis-3-[(4-fluorophenoxy)methyl]-4-methyl-2-[2-methyl-5-(pyrazin-2-yl)-1,3-thiazole-4-carbonyl]-2-azabicyclo[3.1.1]heptane] | 7.26 | 5.92
Cc1cccc(-c2sc(C)nc2C(=O)N2C3CC(C3)[C@@H](C)C2COc2ccc(F)cc2)n1 (mixture of isomers) [Example 137, cis-3-[(4-fluorophenoxy)methyl]-4-methyl-2-[2-methyl-5-(6-methylpyridin-2-yl)-1,3-thiazole-4-carbonyl]-2-azabicyclo[3.1.1]heptane] | 7.97 | 6.34
Cc1cnc(-c2ccc(C)nc2C(=O)N2C3CC(C3)[C@@H](C)C2COc2ccc(F)cc2)nc1 (mixture of isomers) [Example 138, cis-3-[(4-fluorophenoxy)methyl]-4-methyl-2-[6-methyl-3-(5-methylpyrimidin-2-yl)pyridine-2-carbonyl]-2-azabicyclo[3.1.1]heptane] | 8.08 | 7.05
Cc1nc(C(=O)N2C3CC(C3)[C@@H](C)C2COc2ccc(F)cc2)c(-c2cncc(Cl)c2)s1 (mixture of isomers) [Example 139, cis-2-[5-(5-chloropyridin-3-yl)-2-methyl-1,3-thiazole-4-carbonyl]-3-[(4-fluorophenoxy)methyl]-4-methyl-2-azabicyclo[3.1.1]heptane] | 7.85 | 6.18
Cc1nc(C(=O)N2C3CC(C3)[C@@H](C)C2COc2ccc(F)cc2)c(-n2cccn2)s1 (mixture of isomers) [Example 141, cis-3-[(4-fluorophenoxy)methyl]-4-methyl-2-[2-methyl-5-(1H-pyrazol-1-yl)-1,3-thiazole-4-carbonyl]-2-azabicyclo[3.1.1]heptane] | 6.91 | 6.45
C[C@@H]1C2CC(C2)N(C(=O)c2cc(C#N)ccc2-n2nccn2)C1COc1ccc(F)cc1 (mixture of isomers) [Example 142, cis-3-{3-[(4-fluorophenoxy)methyl]-4-methyl-2-azabicyclo[3.1.1]heptane-2-carbonyl}-4-(2H-1,2,3-triazol-2-yl)benzonitrile] | 7 | 6.33
Cc1ccc(-n2ncc(C)n2)c(C(=O)N2C3CC(C3)[C@@H](C)C2COc2ccc(F)cc2)n1 (mixture of isomers) [Example 144, cis-3-[(4-fluorophenoxy)methyl]-4-methyl-2-[6-methyl-3-(4-methyl-2H-1,2,3-triazol-2-yl)pyridine-2-carbonyl]-2-azabicyclo[3.1.1]heptane] | 7.96 | 6.83
Cc1cnc(-n2nccn2)c(C(=O)N2C3CC(C3)[C@@H](C)C2COc2ccc(F)cc2)n1 (mixture of isomers) [Example 145, cis-3-[(4-fluorophenoxy)methyl]-4-methyl-2-[6-methyl-3-(2H-1,2,3-triazol-2-yl)pyrazine-2-carbonyl]-2-azabicyclo[3.1.1]heptane] | 7.03 | 5.62
Cc1cn(-c2ccc(C)nc2C(=O)N2C3CC(C3)[C@@H](C)C2COc2ccc(F)cc2)nn1 (mixture of isomers) [Example 146, cis-3-[(4-fluorophenoxy)methyl]-4-methyl-2-[6-methyl-3-(4-methyl-1H-1,2,3-triazol-1-yl)pyridine-2-carbonyl]-2-azabicyclo[3.1.1]heptane] | 6.88 | 5.53
Cc1ccc(-n2nccn2)c(C(=O)N2C3CC(C3)[C@H](C)C2CNc2ccc(Cl)cn2)n1 (mixture of isomers) [Example 148, trans-5-chloro-N-({4-methyl-2-[6-methyl-3-(2H-1,2,3-triazol-2-yl)pyridine-2-carbonyl]-2-azabicyclo[3.1.1]heptan-3-yl}methyl)pyridin-2-amine] | 6.85 | 5.62
Cc1ccc(-n2nccn2)c(C(=O)N2C3CC(C3)[C@@H](C)C2CNc2nc3ccc(F)cc3s2)n1 (mixture of isomers) [Example 152, cis-6-fluoro-N-({4-methyl-2-[6-methyl-3-(2H-1,2,3-triazol-2-yl)pyridine-2-carbonyl]-2-azabicyclo[3.1.1]heptan-3-yl}methyl)-1,3-benzothiazol-2-amine] | 8.68 | 6.1
Cc1ccc(-n2nccn2)c(C(=O)N2C3CC(C3)[C@@H](C)C2CNc2ccc(Cl)cn2)n1 (mixture of isomers) [Example 156, cis-5-chloro-N-({4-methyl-2-[6-methyl-3-(2H-1,2,3-triazol-2-yl)pyridine-2-carbonyl]-2-azabicyclo[3.1.1]heptan-3-yl}methyl)pyridin-2-amine] | 7.53 | 5.35
Cc1ccc(-n2nccn2)c(C(=O)N2C3CC(C3)[C@@H](C)C2CNc2nc3cc(F)ccc3s2)n1 (mixture of isomers) [Example 157, cis-5-fluoro-N-({4-methyl-2-[6-methyl-3-(2H-1,2,3-triazol-2-yl)pyridine-2-carbonyl]-2-azabicyclo[3.1.1]heptan-3-yl}methyl)-1,3-benzothiazol-2-amine] | 7.84 | 5.63
Cc1ccc(-n2nccn2)c(C(=O)N2C3CC(C3)[C@@H](C)C2CNc2cnc3ccccc3n2)n1 (mixture of isomers) [Example 158, cis-N-({4-methyl-2-[6-methyl-3-(2H-1,2,3-triazol-2-yl)pyridine-2-carbonyl]-2-azabicyclo[3.1.1]heptan-3-yl}methyl)quinoxalin-2-amine] | 8.4 | 5.74
Cc1ccc(-n2nccn2)c(C(=O)N2C3CC(C3)[C@@H](C)C2CNc2ccc3ccccc3n2)n1 (mixture of isomers) [Example 161, cis-N-({4-methyl-2-[6-methyl-3-(2H-1,2,3-triazol-2-yl)pyridine-2-carbonyl]-2-azabicyclo[3.1.1]heptan-3-yl}methyl)quinolin-2-amine] | 7.32 | 5.2
